Data published in ChEMBL document CHEMBL1157712, “Hit to lead account of the discovery of bisbenzamide and related ureidobenzamide inhibitors of Rho kinase” (J Med Chem, 2010).
In brackets after ≈: the same amount, converted by molar mass. Each block holds one compound with its values, some of them ahead of it.

Legend:
[1] = target: T1, Rho-associated protein kinase 2 (Homo sapiens, UniProt O75116)
Description: (§2) Inhibition of human ROCK2 by homogenous luciferase assay

[2] = target: T1, Rho-associated protein kinase 2; remark: listed apart in the source
Description: as §2

[3] = Solubility at pH 7.4; assay type: physicochemical; settings: buffer
[4] = target: T2, Cytochrome P450 3A4 (Homo sapiens, UniProt P08684); assay: Inhibition of human CYP3A4 using BQ substrate by fluorescence assay; assay type: ADME
[5] = (§1) Permeability from apical to basolateral side in human Caco-2 cells; assay type: ADME, cell-based; settings: Caco-2, read-out: permeability
[6] = target: Cytochrome P450 2C9 (Homo sapiens, UniProt P11712); assay: Inhibition of human CYP2C9 by fluorescence assay; assay type: ADME
[7] = Permeability from basolateral to apical side in human Caco-2 cells; assay type: ADME, cell-based; settings: read-out: permeability
[8] = target: Cytochrome P450 2C19 (Homo sapiens, UniProt P33261); assay: Inhibition of human CYP2C19 by fluorescence assay; assay type: ADME
[9] = target: T3, Protein kinase C epsilon type (Homo sapiens, UniProt Q02156); assay: Inhibition of PKCepsilon
T3 sequence (Q02156 whole entry): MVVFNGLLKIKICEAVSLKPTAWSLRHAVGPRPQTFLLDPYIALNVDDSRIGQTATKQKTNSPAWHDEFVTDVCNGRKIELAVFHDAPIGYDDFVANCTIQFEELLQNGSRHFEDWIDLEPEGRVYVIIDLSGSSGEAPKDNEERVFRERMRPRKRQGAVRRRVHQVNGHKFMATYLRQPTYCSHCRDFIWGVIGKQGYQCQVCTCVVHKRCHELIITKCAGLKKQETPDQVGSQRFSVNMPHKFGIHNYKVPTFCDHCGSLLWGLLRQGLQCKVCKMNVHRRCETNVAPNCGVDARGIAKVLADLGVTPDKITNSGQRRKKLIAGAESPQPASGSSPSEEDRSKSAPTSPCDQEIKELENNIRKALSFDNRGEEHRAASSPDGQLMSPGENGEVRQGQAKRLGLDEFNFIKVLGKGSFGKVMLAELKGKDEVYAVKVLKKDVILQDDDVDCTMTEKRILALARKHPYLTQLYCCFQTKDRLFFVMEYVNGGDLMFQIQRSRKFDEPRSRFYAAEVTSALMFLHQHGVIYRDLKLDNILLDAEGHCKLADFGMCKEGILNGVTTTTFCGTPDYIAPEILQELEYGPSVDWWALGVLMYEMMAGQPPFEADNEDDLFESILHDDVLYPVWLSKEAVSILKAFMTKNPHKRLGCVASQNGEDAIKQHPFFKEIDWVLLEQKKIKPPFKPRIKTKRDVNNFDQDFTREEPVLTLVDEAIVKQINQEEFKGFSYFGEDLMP

[10] = target: Serine/threonine-protein kinase N2 (Homo sapiens, UniProt Q16513)
[11] = target: T2, Cytochrome P450 3A4; assay: Inhibition of human CYP3A4 using BFC substrate by fluorescence assay; assay type: ADME
[12] = Metabolic stability in human liver microsomes assessed as half life; assay type: ADME, Microsome
[13] = target: Cytochrome P450 2D6 (Homo sapiens, UniProt P10635); assay: Inhibition of human CYP2D6 by fluorescence assay; assay type: ADME
[14] = target: T1, Rho-associated protein kinase 2; assay: Inhibition of human ROCK2 by IMAP assay
[15] = target: Serine/threonine-protein kinase MRCK beta (Homo sapiens) (UniProt Q9Y5S2); assay: Inhibition of CDC42BPB
[16] = target: T4, Cytochrome P450 1A2 (Homo sapiens, UniProt P05177); assay: Inhibition of human CYP1A2 by fluorescence assay; assay type: ADME
T4 sequence (P05177 whole entry): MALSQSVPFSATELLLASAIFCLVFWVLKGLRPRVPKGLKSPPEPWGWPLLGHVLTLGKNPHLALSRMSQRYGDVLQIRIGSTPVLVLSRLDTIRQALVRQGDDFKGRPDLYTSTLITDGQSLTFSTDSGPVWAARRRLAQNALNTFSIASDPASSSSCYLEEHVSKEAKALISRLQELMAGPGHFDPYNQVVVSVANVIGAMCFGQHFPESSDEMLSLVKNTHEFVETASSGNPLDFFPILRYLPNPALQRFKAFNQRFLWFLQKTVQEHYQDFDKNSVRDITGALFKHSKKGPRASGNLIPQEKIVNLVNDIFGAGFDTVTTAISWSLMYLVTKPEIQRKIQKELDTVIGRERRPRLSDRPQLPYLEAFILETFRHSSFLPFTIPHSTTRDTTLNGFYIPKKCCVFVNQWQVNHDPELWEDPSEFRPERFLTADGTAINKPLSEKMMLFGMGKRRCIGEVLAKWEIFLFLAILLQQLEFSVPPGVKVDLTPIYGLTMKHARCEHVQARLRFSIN

[17] = species: Rattus norvegicus; assay: Induction of relaxation activity of phenylephrine-induced Sprague-Dawley rat aortic ring contraction; assay type: functional; settings: Aorta
[18] = Membrane permeability by PAMPA assay; assay type: ADME; settings: read-out: permeability
[19] = system: Caco-2; assay: as §1; assay type: ADME, cell-based; settings: caco-2, BLD = below limit of detection

T2 sequence (P08684 whole entry): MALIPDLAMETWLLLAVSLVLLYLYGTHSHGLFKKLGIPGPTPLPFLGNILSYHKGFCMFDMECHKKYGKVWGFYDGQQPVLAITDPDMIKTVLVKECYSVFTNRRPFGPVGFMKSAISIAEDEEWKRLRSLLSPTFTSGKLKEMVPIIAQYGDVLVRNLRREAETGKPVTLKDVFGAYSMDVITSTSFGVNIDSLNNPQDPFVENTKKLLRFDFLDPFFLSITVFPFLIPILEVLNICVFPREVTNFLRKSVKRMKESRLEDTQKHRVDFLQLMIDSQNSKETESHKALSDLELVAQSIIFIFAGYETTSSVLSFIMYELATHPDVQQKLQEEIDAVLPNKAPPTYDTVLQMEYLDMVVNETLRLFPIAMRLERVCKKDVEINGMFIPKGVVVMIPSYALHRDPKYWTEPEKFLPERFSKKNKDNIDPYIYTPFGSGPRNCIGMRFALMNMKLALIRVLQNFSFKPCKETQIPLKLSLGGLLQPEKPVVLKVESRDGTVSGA
Sequence of Serine/threonine-protein kinase MRCK beta (Homo sapiens) (Q9Y5S2 whole entry, looked up): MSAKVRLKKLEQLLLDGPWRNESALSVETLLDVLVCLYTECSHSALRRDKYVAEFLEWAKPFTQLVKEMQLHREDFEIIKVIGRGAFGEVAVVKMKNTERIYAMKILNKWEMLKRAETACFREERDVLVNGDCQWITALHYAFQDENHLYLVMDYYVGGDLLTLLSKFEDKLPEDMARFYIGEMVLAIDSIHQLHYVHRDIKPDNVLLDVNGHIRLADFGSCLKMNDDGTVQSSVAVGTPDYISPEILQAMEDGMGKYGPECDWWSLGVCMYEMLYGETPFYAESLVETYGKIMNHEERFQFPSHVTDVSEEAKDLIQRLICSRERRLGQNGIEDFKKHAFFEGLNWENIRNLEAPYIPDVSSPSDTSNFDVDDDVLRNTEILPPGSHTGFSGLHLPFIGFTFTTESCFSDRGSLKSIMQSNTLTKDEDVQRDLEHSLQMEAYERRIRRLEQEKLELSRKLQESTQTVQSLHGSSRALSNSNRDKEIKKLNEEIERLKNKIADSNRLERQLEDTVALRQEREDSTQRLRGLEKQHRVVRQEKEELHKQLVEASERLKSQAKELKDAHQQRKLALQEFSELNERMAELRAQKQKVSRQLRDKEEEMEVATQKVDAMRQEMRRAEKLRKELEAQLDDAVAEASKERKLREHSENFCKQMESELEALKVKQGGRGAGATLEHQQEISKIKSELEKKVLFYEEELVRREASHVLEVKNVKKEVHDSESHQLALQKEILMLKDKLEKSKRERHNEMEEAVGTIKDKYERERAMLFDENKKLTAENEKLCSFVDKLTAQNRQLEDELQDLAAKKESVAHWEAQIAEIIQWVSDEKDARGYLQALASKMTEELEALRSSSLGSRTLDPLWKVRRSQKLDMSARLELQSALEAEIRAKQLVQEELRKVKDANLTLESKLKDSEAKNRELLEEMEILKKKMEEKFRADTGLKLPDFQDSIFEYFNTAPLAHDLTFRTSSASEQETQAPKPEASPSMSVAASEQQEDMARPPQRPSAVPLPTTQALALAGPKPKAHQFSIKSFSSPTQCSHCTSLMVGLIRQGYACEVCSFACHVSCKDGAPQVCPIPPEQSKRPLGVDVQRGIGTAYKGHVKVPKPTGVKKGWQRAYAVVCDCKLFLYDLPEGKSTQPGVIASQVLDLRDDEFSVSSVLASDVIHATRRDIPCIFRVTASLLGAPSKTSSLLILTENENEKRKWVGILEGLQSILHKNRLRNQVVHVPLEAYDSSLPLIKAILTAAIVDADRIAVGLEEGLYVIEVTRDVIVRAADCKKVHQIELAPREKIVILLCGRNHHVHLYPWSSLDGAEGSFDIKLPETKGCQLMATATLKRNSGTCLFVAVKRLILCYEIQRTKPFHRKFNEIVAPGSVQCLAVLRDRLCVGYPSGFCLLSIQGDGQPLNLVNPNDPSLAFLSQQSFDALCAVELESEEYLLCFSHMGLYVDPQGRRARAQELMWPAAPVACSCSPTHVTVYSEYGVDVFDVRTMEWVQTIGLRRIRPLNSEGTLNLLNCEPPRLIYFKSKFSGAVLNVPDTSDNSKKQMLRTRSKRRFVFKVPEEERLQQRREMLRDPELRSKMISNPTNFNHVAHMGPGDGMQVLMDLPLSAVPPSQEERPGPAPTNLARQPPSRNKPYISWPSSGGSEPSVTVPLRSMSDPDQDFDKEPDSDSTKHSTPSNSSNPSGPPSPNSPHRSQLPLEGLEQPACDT
Sequence of Cytochrome P450 2C9 (P11712 whole entry): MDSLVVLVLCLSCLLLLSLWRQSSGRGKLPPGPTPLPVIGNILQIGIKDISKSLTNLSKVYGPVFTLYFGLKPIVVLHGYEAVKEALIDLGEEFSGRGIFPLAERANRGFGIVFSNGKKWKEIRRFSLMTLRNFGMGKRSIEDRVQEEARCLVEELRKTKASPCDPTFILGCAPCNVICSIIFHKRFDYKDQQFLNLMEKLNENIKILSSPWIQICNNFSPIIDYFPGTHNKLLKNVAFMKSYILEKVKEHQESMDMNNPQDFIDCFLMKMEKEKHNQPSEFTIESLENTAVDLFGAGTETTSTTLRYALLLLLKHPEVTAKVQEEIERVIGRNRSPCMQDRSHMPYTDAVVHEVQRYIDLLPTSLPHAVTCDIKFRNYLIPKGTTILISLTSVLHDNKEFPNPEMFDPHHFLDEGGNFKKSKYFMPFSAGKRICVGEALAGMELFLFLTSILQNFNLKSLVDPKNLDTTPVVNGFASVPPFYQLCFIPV
Sequence of Serine/threonine-protein kinase N2 (Q16513 whole entry): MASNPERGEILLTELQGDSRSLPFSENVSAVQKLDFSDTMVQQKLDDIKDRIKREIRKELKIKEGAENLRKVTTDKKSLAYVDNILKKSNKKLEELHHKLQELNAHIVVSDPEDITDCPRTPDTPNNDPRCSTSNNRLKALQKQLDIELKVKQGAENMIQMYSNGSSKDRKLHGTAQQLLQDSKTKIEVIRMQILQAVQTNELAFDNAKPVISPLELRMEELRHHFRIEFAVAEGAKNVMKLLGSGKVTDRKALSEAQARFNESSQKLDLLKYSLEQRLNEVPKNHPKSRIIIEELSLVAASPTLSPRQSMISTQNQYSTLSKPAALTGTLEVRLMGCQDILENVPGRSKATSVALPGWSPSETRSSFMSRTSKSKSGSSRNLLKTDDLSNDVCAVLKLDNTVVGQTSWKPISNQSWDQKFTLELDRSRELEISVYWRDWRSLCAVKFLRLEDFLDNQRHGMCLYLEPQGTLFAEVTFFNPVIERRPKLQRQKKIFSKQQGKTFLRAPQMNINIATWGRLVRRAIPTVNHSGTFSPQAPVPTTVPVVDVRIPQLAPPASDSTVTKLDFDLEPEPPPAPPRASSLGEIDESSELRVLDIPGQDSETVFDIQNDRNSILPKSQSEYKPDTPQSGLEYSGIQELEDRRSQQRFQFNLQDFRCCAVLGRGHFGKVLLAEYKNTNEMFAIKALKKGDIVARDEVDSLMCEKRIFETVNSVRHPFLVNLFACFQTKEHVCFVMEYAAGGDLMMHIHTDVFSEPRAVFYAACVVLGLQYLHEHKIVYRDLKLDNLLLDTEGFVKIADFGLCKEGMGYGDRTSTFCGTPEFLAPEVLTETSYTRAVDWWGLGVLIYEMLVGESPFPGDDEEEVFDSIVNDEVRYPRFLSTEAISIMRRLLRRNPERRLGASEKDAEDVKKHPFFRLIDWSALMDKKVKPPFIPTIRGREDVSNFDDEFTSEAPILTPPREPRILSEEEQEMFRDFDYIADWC
Sequence of Cytochrome P450 2C19 (P33261 whole entry): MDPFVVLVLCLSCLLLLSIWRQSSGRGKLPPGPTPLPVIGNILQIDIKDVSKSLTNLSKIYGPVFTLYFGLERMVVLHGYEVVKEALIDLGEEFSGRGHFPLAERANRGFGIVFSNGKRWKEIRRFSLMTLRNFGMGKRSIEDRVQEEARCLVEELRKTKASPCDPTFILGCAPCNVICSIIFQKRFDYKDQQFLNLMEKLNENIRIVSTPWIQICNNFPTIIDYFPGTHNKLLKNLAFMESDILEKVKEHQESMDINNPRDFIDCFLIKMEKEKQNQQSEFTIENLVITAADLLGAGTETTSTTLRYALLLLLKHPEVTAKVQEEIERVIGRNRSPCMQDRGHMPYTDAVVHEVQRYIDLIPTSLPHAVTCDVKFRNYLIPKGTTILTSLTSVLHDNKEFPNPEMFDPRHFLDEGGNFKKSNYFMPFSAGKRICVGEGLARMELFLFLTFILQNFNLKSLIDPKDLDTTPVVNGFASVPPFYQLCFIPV
Sequence of Cytochrome P450 2D6 (P10635 whole entry): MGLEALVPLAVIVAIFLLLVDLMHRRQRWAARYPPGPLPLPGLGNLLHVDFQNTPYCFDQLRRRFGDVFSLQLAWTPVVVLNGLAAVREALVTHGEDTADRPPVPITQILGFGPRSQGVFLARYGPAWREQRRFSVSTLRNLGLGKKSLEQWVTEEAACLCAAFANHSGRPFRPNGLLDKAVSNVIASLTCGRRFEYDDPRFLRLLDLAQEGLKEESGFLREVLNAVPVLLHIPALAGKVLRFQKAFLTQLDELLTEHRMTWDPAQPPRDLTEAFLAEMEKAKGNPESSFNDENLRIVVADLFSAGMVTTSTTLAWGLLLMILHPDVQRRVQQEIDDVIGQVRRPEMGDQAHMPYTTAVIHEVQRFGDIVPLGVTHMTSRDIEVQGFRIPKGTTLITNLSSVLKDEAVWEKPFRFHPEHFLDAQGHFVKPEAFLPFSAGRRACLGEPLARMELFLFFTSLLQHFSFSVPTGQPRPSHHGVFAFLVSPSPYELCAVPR

SMILES: COc1ccc(C(=O)NCc2cccc(C(=O)NCCC3CCCN(C)C3)c2)cc1OC (stereo not drawn)
IC50 [1]: 102 µM

SMILES: COc1ccc(C(=O)NCc2cccc(C(=O)NCCC3CCCNC3)c2)cc1OC (stereo not drawn)
solubility [3]: 16 µg/mL (≈ 37.6 µM) | IC50 [4]: > 30 µM | IC50 [2]: 0.053 µM | Papp A→B [5]: 0.1 ×10⁻⁶ cm/s | IC50 [6]: > 30 µM | Papp B→A [7]: 0.8 ×10⁻⁶ cm/s | IC50 [8]: > 30 µM | IC50 [9]: > 5 µM | IC50 [10]: 4.4 µM | IC50 [11]: > 30 µM | half-life [12]: 2.32 h | IC50 [13]: > 30 µM | IC50 [14]: 0.14 µM | IC50 [15]: > 5 µM | IC50 [16]: > 30 µM

SMILES: COc1ccc(C(=O)Nc2cccc(C(=O)NCCC3CCCNC3)c2)cc1OC (stereo not drawn)
IC50 [2]: > 6000 µM

SMILES: COc1ccc(C(=O)NCc2cccc(C(=O)Nc3ccc4c(c3)CN(C)CC4)c2)cc1OC
solubility [3]: > 85 µg/mL | IC50 [4]: > 30 µM | IC50 [2]: 0.046 µM | Papp A→B [5]: 0.3 ×10⁻⁶ cm/s | IC50 [6]: > 30 µM | Papp B→A [7]: 27.1 ×10⁻⁶ cm/s | IC50 [8]: > 30 µM | IC50 [17]: 1.2 µM | IC50 [9]: > 5 µM | IC50 [10]: > 5 µM | IC50 [11]: 1.7 µM | half-life [12]: 0.917 h | IC50 [13]: > 30 µM | Papp [18]: 16 ×10⁻⁶ cm/s | IC50 [15]: > 5 µM | IC50 [16]: > 30 µM

SMILES: COc1ccc(C(=O)NCc2cccc(C(=O)NCCC3CCNCC3)c2)cc1OC
solubility [3]: 67 µg/mL (≈ 157 µM) | IC50 [4]: > 30 µM | Papp A→B [5]: 0.1 ×10⁻⁶ cm/s | IC50 [6]: > 30 µM | Papp B→A [7]: 0.6 ×10⁻⁶ cm/s | IC50 [8]: > 30 µM | IC50 [9]: > 5 µM | IC50 [10]: > 5 µM | IC50 [11]: > 30 µM | half-life [12]: 1.45 h | IC50 [13]: > 30 µM | Papp [18]: 0.6 ×10⁻⁶ cm/s | IC50 [15]: > 5 µM | IC50 [16]: > 30 µM

SMILES: COc1ccc(S(=O)(=O)NCc2cccc(C(=O)NCCC3CCCNC3)c2)cc1OC (stereo not drawn)
IC50 [2]: > 6000 µM

SMILES: CN(C)Cc1ccc(NC(=O)c2cccc(CNC(=O)Nc3ccc(C#N)c(Cl)c3)c2)cc1
IC50 [14]: 0.045 µM | IC50 [1]: 10 µM

SMILES: O=S(=O)(c1cccc2cnccc12)N1CCCNCC1 [FASUDIL]
IC50 [17]: 6.1 µM

SMILES: COc1ccc(C(=O)NCc2cccc(C(=O)NCC3CCCO3)c2)cc1OC (racemic)
IC50 [1]: 1.2 µM

The remaining lines, values ahead:

IC50 [1]: 1600 µM
SMILES: COc1ccc(NC(=O)NCc2cccc(C(=O)NCCC3CCCNC3)c2)cc1OC (stereo not drawn)

IC50 [2]: > 7000 µM
SMILES: Cc1ccc(C(=O)NCc2cccc(C(=O)NCCc3ccncc3)c2)cc1C

IC50 [2]: 5.5 µM
SMILES: N#Cc1cccc(NC(=O)NCc2cccc(C(=O)NCCc3ccncc3)c2)c1

IC50 [14]: 0.29 µM | IC50 [1]: 240 µM
SMILES: CN(C)Cc1ccc(NC(=O)c2cccc(CNC(=O)Nc3cccc(C(N)=O)c3)c2)cc1

IC50 [2]: > 7 µM | IC50 [14]: > 7 µM
SMILES: COc1cccc(C(=O)NCc2cccc(C(=O)Nc3ccc(CN(C)C)cc3)c2)c1

IC50 [2]: > 7000 µM
SMILES: O=C(NCCc1ccncc1)c1cccc(CNC(=O)c2ccc3c(c2)OCO3)c1

IC50 [14]: 0.21 µM | IC50 [1]: 70 µM
SMILES: N#Cc1ccc(NC(=O)NCc2cccc(C(=O)Nc3ccc(CN)cc3)c2)cc1

IC50 [2]: > 7000 µM
SMILES: COc1cccc(C(=O)NCc2cccc(C(=O)NCCc3ccncc3)c2)c1

IC50 [14]: 0.35 µM | IC50 [1]: 160 µM
SMILES: COc1ccc(C(=O)NCc2cccc(C(=O)Nc3ccc(CN(C)C)cc3)c2)cc1C(F)(F)F

IC50 [14]: > 6.5 µM
SMILES: CN(C)Cc1ccc(NC(=O)c2cccc(CNC(=O)c3ccc(C#N)cc3)c2)cc1

solubility [3]: > 100 µg/mL | IC50 [4]: > 30 µM | IC50 [2]: 0.014 µM | permeability [19]: BLD | IC50 [6]: 22 µM | Papp B→A [7]: 8.8 ×10⁻⁶ cm/s | IC50 [8]: > 30 µM | IC50 [17]: 8.5 µM | IC50 [9]: > 5 µM | IC50 [10]: 1.6 µM | IC50 [11]: 5.9 µM | half-life [12]: 3.15 h | IC50 [13]: > 30 µM | IC50 [14]: 0.048 µM | IC50 [15]: > 5 µM | IC50 [16]: > 30 µM
SMILES: N#Cc1ccc(NC(=O)NCc2cccc(C(=O)Nc3ccc4c(c3)CNCC4)c2)cc1

IC50 [14]: > 6.5 µM
SMILES: COc1ccc(C(=O)NCc2cccc(C(=O)Nc3ccc(CN(C)C)cc3)c2)cc1
